Source: patent US20230321171A1, “ANTI-COCCIDIAL COMPOSITION COMPRISING MANGOSTEEN AND USES THEREOF” (CJ CHEILJEDANG CORPORATION, priority 2020, published 2023)

Assays:
Eimeria acervulina = test: Protozoan (sporozoite) direct killing ability, Eimeria acervulina; type: cell-based; settings: for Eimeria acervulina protozoal death rate (%): compared to PBS-treated negative control group; for Minimum concentration for killing 100% protozoa (ppm), Eimeria acervulina: tested 1 to 500 ppm
Method: In the present example, protozoan (sporozoite) direct killing ability evaluation was conducted against 3 representative Eimeria kinds known to be infected in most farms (E. tenella, E. acervulina, E. maxima).
A certain amount of oocysts of each protozoan was put in a tube containing glass beads and pulverized, and then to remove the crushed oocyst cell wall and other debris, internal sporocysts were purified using the percoll density gradient, and washed with PBS solution. A reagent comprising sodium taurocholic acid (Sigma aldrich, USA) and trypsin (Gibco, USA), respectively, was treated to sporocysts of Eimeria tenella, Eimeria acervulina and Eimeria maxima for excystation and they were incubated, and then they were washed with PBS solution once and protozoa were obtained.
After reacting the mangosteen pericarp extract, epicatechin, alpha-mangostin, xanthone and anticoccidial agents, salinomycin and diclazuril (hereinafter, material) with 3 kinds of Eimeria protozoa at various concentrations of 1 to 500 ppm, respectively, only alive protozoa (sporozoites) were counted through microscopic observation. Then, the death rate (%) of the protozoa when each material was treated compared to the PBS-treated negative control group was calculated and shown in Table 8 to Table 10 and Table 12, respectively, and the minimum concentration which directly killed the protozoa by 100% was shown in Table 11 below.

[1] = Broiler growth effect (daily weight gain) due to intake in feed; type: in vivo, Ross broilers; settings: for End body weight: non-infected broilers
Method: An efficacy evaluation test was performed in an animal experiment facility in Gyeongsangnam-do, South Korea. One-day-old female Ross broilers were individually weighed and randomly divided into groups to use in an experiment. Matters and conditions for experimental design were described in Table 16.
A breeding farm was managed according to the Korean poultry breeding management guidelines. Cages and the breeding farm were cleaned and disinfected before starting the test. The temperature of […] and the humidity of 40 to 50% of the breeding farm were maintained, and it was continuously monitored.
For the feed, Korea Feed A1-choi product was used, and each material (salinomycin (Cheil Bio Cheilsalino-60 product), xanthone (Sigma Aldrich X600 product), and the mangosteen extract prepared in Example 1-2 above) was added to the feed, respectively, at a concentration described in Table 17 below to be self-mixed. Antibiotics and supplements were not used in general feed and mixed feed, and no anticoccidial agent other than each material was added. Broilers were fed ad libitum throughout the experiment period. After putting 20 1-day-age broilers in cages randomly placed for each of the control group or test group and breeding, general feed was fed for 7 days, and then the mixed feed prepared above was ingested by dividing by control group or test group. The feed formulation administered to the control group (negative control group or positive control group) and test group was described in Table 17 below.
The body weight before feeding and on the 7th day after feeding the feed of Table 16 above into individuals was measured, and the difference was divided by the number of days to calculate the daily weight gain (ADG, g/d), and the result was shown in Table 18. For comparison between 6 treatment groups, Duncan post-test multiple comparison method was used, and statistical significance was verified using a SAS statistical program, and the result was shown in Table 18.

[2] = formulated feed 125 ppm for 7 days
[3] = formulated feed 250 ppm for 7 days

## O=c1c2ccccc2oc2ccccc12 [Xanthone, xanthone]
Eimeria acervulina; 1 ppm
  Eimeria acervulina protozoal death rate (%): 0%
Eimeria acervulina; 5 ppm
  Eimeria acervulina protozoal death rate (%): 0%
Eimeria acervulina; 10 ppm
  Eimeria acervulina protozoal death rate (%): 0%
Eimeria acervulina; 50 ppm
  Eimeria acervulina protozoal death rate (%): 0%
Eimeria acervulina; 100 ppm
  Eimeria acervulina protozoal death rate (%): 0%
Eimeria acervulina; 125 ppm
  Eimeria acervulina protozoal death rate (%): 0%
Eimeria acervulina; 250 ppm
  Eimeria acervulina protozoal death rate (%): 11%
Eimeria acervulina; 500 ppm
  Eimeria acervulina protozoal death rate (%): 25%
Eimeria acervulina
  Minimum concentration for killing 100% protozoa (ppm), Eimeria acervulina: >500 ppm
Eimeria acervulina; listed as xanthone
  Minimum concentration for killing 100% protozoa (ppm), Eimeria acervulina: > 500 ppm
[1]; Table 18, Duncan p < 0.05, mangosteen extract also vs positive control and xanthone groups
  Daily weight gain compared to the negative control group, in words: rather reduced
[1]; [2]
  Daily weight gain (ADG): 43.86 g/day
  End-initial body weight (7 days, g): 307 g
  End body weight: 509 g
[1]; [3]
  Daily weight gain (ADG): 40.57 g/day
  End-initial body weight (7 days, g): 284 g
  End body weight: 485 g
